Measurements: patent publication US20070082870A1, “Pharmaceutical formulations of cyclodextrins and antifungal azole compounds” (priority 2005, published 2007)
Values after ≈ are worked out from the molar mass of the structure shown. Values belong to the compound of their own block, whether it stands above or below them.

What was measured:
[1] = Equilibrium solubility of ketoconazole in water and buffers at 10 wt % HBenBCD; type: physicochemical
Description: The following is a typical procedure for determining the solubility of a drug in a given solvent. To each well of a 2 mL 96-well polypropylene mixing plate was added excess drug (ca. 5-10 mg). […] The cavities on the loading plate were arranged so that they corresponded to the individual wells of the 96-well mixing plate. A line of drug was placed at one end of the loading plate and a glass plate was used to distribute the drug into each cavity. The 96-well mixing plate was placed on the loading plate then inverted and tapped so that the drug dropped into the appropriate well of the mixing plate.
(§1) To each well of the pre-loaded 96-well mixing plate was added 300-500 μL of water or buffer (blanks with no CD) or the appropriate CD solution. Typically, each determination was in triplicate. The blanks were used to determine the intrinsic solubility (So) of drug in that solution and the well containing the CD solutions were used to determine the solubility of drug due to CD (Sw). After addition of the stock solutions, the plate was sealed using aluminum foil with a non-volatile adhesive on one surface. The plate was placed on a rotary shaking plate (Helidolph Titramax 1000) and the plate was shaken at 800-1200 rpm at 23° C.±2° for 48-72 h. During the mixing period, the plate was inspected to insure that each well contained undissolved, excess drug. Additional drug was added if necessary.
(§2) Following the mixing period, the solutions in each well were transferred to the corresponding wells of a 96-well 2 mL multiscreen filter plate using a multi-channel pipette. The bottom of each well was a hydrophilic membrane (Millipore Corporation). The filter plate was placed on top of a vacuum manifold and the solutions were filtered at ca. 20 mm Hg into the corresponding wells of a 2 mL storage plate. The duration of the filtration period was typically no more than 60 seconds. The storage plate was then sealed with a silicon mat and samples were removed for analysis as appropriate.
The drug content in each well can be determined by a number of methods. Ultraviolet spectroscopy (UV) or high pressure liquid chromatography (HPLC) is preferred. In the present example, UV spectroscopy was used. […] Measurements were made using a SpectraMax Plus 384 Molecular Devices multi-well plate reader. Absorbance was converted to drug concentration using the appropriate absorbtivity for the drug. The drug concentrations were then exported to the appropriate software package for final analysis.
The general protocol described in Example 1 was utilized to determine the equilibrium solubility of ketoconazole in water and buffers at 10 wt % HBenBCD concentration.

physchem = type: physicochemical; conditions: for solubility: 23 °C, thermodynamic from solid
Description: (§3) The following is a typical procedure for determining the solubility of a drug in a given solvent. To each well of a 2 mL 96-well polypropylene mixing plate was added excess drug (ca. 5-10 mg). The drug was typically added by using a metal loading plate having cavities that will hold an approximate predetermined amount of drug. The cavities on the loading plate were arranged so that they corresponded to the individual wells of the 96-well mixing plate. A line of drug was placed at one end of the loading plate and a glass plate was used to distribute the drug into each cavity. The 96-well mixing plate was placed on the loading plate then inverted and tapped so that the drug dropped into the appropriate well of the mixing plate.
as §1, §2
(§4) The drug content in each well can be determined by a number of methods. Ultraviolet spectroscopy (UV) or high pressure liquid chromatography (HPLC) is preferred. In the present example, UV spectroscopy was used. Typically, 10-20 μL of drug solution was transferred to the corresponding well of a 96-well measurement plate (UV-STAR plates from Greiner with a spectral range of 190-400 nm) and diluted with 1/1 water/ethanol so that the absorbance was in the linear response range. Measurements were made using a SpectraMax Plus 384 Molecular Devices multi-well plate reader. Absorbance was converted to drug concentration using the appropriate absorbtivity for the drug. The drug concentrations were then exported to the appropriate software package for final analysis.
The general protocol described in Example 1 was utilized to determine the equilibrium solubility of voriconazole in water and buffers at 10 wt % HBenBCD concentration.

[2] = type: physicochemical; conditions: pH 3
Description: as §3
(§5) To each well of the pre-loaded 96-well mixing plate was added 300-500 μL of water or buffer (blanks with no CD) or the appropriate CD solution. […]
as §4, with “Ultraviolet spectroscopy (UV) or high pressure liquid chromatography (HPLC) is preferred. In the present example, UV spectroscopy was used.” left out, “The drug concentrations were then exported to the appropriate software package for final analysis.” left out

[3] = Equilibrium solubility of clotrimazole in water, 0 to ca. 25 wt % cyclodextrin; type: physicochemical
Description: as §3, §5
as §4, with “Ultraviolet spectroscopy (UV) or high pressure liquid chromatography (HPLC) is preferred. In the present example, UV spectroscopy was used.” left out, “The drug concentrations were then exported to the appropriate software package for final analysis.” left out

[4] = Equilibrium solubility of itraconazole in water and buffers at 10 wt % cyclodextrin; type: physicochemical; conditions: water
Description: Stock solutions of cyclodextrins were prepared by dissolving an accurately weighed amount of previously dried cyclodextrin in water or in buffer to give a final cyclodextrin concentration of 10 wt %. In this example, the cyclodextrins were HBenBCD, HPBCD, and SBEBCD. The buffers were 0.05 M pH3 phosphate, 0.05 M pH 3 citrate, and 0.05 M pH 4.8 acetate.
as §3, §1, §2, §4

[5] = Equilibrium solubility of itraconazole in water and pH 3 phosphate buffer, 0 to 25 wt % cyclodextrin; type: physicochemical
Description: as §3, §5
as §4, with “Ultraviolet spectroscopy (UV) or high pressure liquid chromatography (HPLC) is preferred. In the present example, UV spectroscopy was used.” left out, “The drug concentrations were then exported to the appropriate software package for final analysis.” left out

Sw/So ([1]; pH 3 D,L-tartrate): 2.7
Sw/So ([1]; pH 3 D-tartrate): 3.2
Sw/So ([1]; pH 3 L-tartrate): 2.8
Sw/So ([1]; pH 3 citrate): 3.3
Sw/So ([1]; pH 3 phosphate): 4.3
Sw/So ([1]; pH 4.8 acetate): 95.5
Sw/So ([1]; pH 7.3 phosphate): 548.9
Sw/So ([1]; water): 600.4
Compound: CC(=O)N1CCN(c2ccc(OC[C@H]3CO[C@](Cn4ccnc4)(c4ccc(Cl)cc4Cl)O3)cc2)CC1 (racemic) [ketoconazole]

Sw/So (physchem): 9.8
solubility (physchem; pH 1.2, aqueous with cosolvent or surfactant or cyclodextrin, Sw (solubility with CD)): 10.2 mg/mL (≈ 29.2 mM)
solubility (physchem; pH 1.2, simulated gastric fluid, So (intrinsic solubility)): 3.2 mg/mL (≈ 9.16 mM)
Sw/So (physchem; pH 1.2): 3.2
Sw/So (physchem; pH 7.3): 9.6
more voriconazole solubilized by HBenBCD than SBEBCD [2]: 25%
Compound: C[C@@H](c1ncncc1F)[C@](O)(Cn1cncn1)c1ccc(F)cc1F (single isomer, unassigned) [voriconazole]

Sw/So for HBenBCD, fold greater than that for HPBCD ([3]; ca. 25 wt % CD): 2.4 X
Sw/So ([3]; ca. 25 wt % HBenBCD): 12.3
Compound: Clc1ccccc1C(c1ccccc1)(c1ccccc1)n1ccnc1 [clotrimazole]

Compound: itraconazole
Sw/So ([4]; 10 wt % HBenBCD): 17.2
solubility of itraconazole due to CD (Sw) ([4]; 10 wt % HBenBCD): 0.515 ng/mL
Sw/So ([4]; 10 wt % HPBCD): 3.8
Sw/So ([4]; 10 wt % SBEBCD): 4.2
intrinsic solubility (So) of itraconazole ([4]; no cyclodextrin): 0.03 ng/mL
Sw/So for HBenBCD, fold greater than that for HPBCD ([5]; ca. 25 wt % CD): 4 X
Sw/So ([5]; ca. 25 wt % HBenBCD): 132
